≈ marks a conversion by molar mass, not a printed value.
What was measured:
[1] = test system: E. coli; assay: MIC by broth microdilution (CLSI), E. coli; type: cell-based; details: broth microdilution, cation adjusted Mueller-Hinton Broth, 35° C., 18-24 h; for MIC: Escherichia coli, read-out: E. coli MIC
Method: (§1) Minimal inhibitory concentrations (MIC) were determined by the broth microdilution method in accordance with the Clinical and Laboratory Standards Institute (CLSI) guidelines. In brief, organism suspensions were adjusted to a 0.5 McFarland standard to yield a final inoculum between 3×10^5 and 7×10^5 colony-forming units (CFU)/mL. Drug dilutions and inocula were made in sterile, cation adjusted Mueller-Hinton Broth (Beckton Dickinson). An inoculum volume of 100 μL was added to wells containing 100 μL of broth with 2-fold serial dilutions of drug. All inoculated microdilution trays were incubated in ambient air at 35° C. for 18-24 h. Following incubation, the lowest concentration of the drug that prevented visible growth (OD600 nm<0.05) was recorded as the MIC. Performance of the assay was monitored by the use of laboratory quality-control strains and levofloxacin, a compound with a defined MIC spectrum, in accordance with CLSI guidelines.

[2] = test system: K. pneumoniae; assay: MIC by broth microdilution (CLSI), K. pneumoniae; type: cell-based; details: broth microdilution, cation adjusted Mueller-Hinton Broth, 35° C., 18-24 h; for MIC: Klebsiella pneumoniae, read-out: K. pneumoniae MIC
Method: as §1

**Q.** How did the MIC [1] turn out when `C=C(Cc1ccc(C#Cc2ccc(CN3CCOCC3)cc2)cc1)c1nc[nH]c(=O)c1O` [Compound 105, 5-hydroxy-6-(3-(4-((4-(morpholinomethyl)phenyl)ethynyl)phenyl)prop-1-en-2-yl)pyrimidin-4(3H)-one] was run?
**A.** 1 to 8 µg/mL (≈ 2.34 to 18.7 µM)

**Q.** What about the MIC [2] of the same molecule?
**A.** 1 to 8 µg/mL (≈ 2.34 to 18.7 µM)

**Q.** For `O=c1[nH]cnc(CCN2CCC(C#Cc3ccc(CN4CCOCC4)cc3)CC2)c1O` [Compound 78, 5-hydroxy-6-(2-(4-((4-(morpholinomethyl)phenyl)ethynyl)piperidin-1-yl)ethyl)pyrimidin-4(3H)-one], which MIC [1] is on record?
**A.** 8 to 32 µg/mL (≈ 18.9 to 75.7 µM)

**Q.** What about the MIC [2] of the same molecule?
**A.** > 32 µg/mL

**Q.** With `Nc1ncc(C#Cc2ccc(CC(C(=O)NCC(F)F)c3nc[nH]c(=O)c3O)cc2)cn1` (stereo not shown) [Compound 24, 3-(4-((2-aminopyrimidin-5-yl)ethynyl)phenyl)-N-(2,2-difluoroethyl)-2-(5-hydroxy-6-oxo-1,6-dihydropyrimidin-4-yl)propanamide] as the molecule, how does the MIC [1] read?
**A.** > 32 µg/mL

**Q.** What about the MIC [2] of the same molecule?
**A.** > 32 µg/mL

**Q.** What does the source list for `CC(C)C#CC#Cc1ccc(CC(CNCCF)c2nc[nH]c(=O)c2O)cc1` (stereo not shown) [Compound 66, 6-(1-((2-fluoroethyl)amino)-3-(4-(5-methylhexa-1,3-diyn-1-yl)phenyl)propan-2-yl)-5-hydroxypyrimidin-4(3H)-one]?
**A.** MIC [1]: 8 to 32 µg/mL (≈ 21 to 83.9 µM); MIC [2]: 8 to 32 µg/mL (≈ 21 to 83.9 µM)

**Q.** For `C=CCNCC(Cc1ccc(C#CC#Cc2ccccc2N)cc1)c1nc[nH]c(=O)c1O` (stereo not shown) [Compound 36, 6-(1-(allylamino)-3-(4-((2-aminophenyl)buta-1,3-diyn-1-yl)phenyl)propan-2-yl)-5-hydroxypyrimidin-4(3H)-one], which MIC [1] is on record?
**A.** 8 to 32 µg/mL (≈ 18.8 to 75.4 µM)

**Q.** What about the MIC [2] of the same molecule?
**A.** > 32 µg/mL

**Q.** With `CC(C)C#CC#Cc1ccc(CC(C(=O)NCC(F)F)c2nc[nH]c(=O)c2O)cc1F` (stereo not shown) [Compound 63, N-(2,2-difluoroethyl)-3-(3-fluoro-4-(5-methylhexa-1,3-diyn-1-yl)phenyl)-2-(5-hydroxy-6-oxo-1,6-dihydropyrimidin-4-yl)propanamide] as the molecule, how does the MIC [1] read?
**A.** 1 to 8 µg/mL (≈ 2.32 to 18.5 µM)

**Q.** What about the MIC [2] of the same molecule?
**A.** 8 to 32 µg/mL (≈ 18.5 to 74.2 µM)

**Q.** What does the source list for `O=c1[nH]cnc(C2(Cn3ccc(C#Cc4ccc(CN5CCOCC5)cc4)cc3=O)CC2)c1O` [Compound 43, 5-hydroxy-6-(1-((4-((4-(morpholinomethyl)phenyl)ethynyl)-2-oxopyridin-1(2H)-yl)methyl)cyclopropyl) pyrimidin-4(3H)-one]?
**A.** MIC [1]: > 32 µg/mL; MIC [2]: > 32 µg/mL

**Q.** How did the MIC [1] turn out when `O=c1[nH]cnc(CCc2ccc(C#Cc3ccc(CNC4CC(O)C4)cc3)cn2)c1O` (stereo not shown) [Compound 15, 5-hydroxy-6-(2-(5-((4-(((3-hydroxycyclobutyl)amino)methyl)phenyl)ethynyl)pyridin-2-yl)ethyl)pyrimidin-4(3H)-one] was run?
**A.** 8 to 32 µg/mL (≈ 19.2 to 76.8 µM)

**Q.** What about the MIC [2] of the same molecule?
**A.** > 32 µg/mL

**Q.** What does the source list for `O=C(OC1CCSC1)C(Cc1ccc(C#Cc2ccc(CN3CCOCC3)cc2)cc1)c1nc[nH]c(=O)c1O` (stereo not shown) [Compound 115, tetrahydrothiophen-3-yl 2-(5-hydroxy-6-oxo-1,6-dihydropyrimidin-4-yl)-3-(4-((4-(morpholinomethyl)phenyl)ethynyl)phenyl)propanoate]?
**A.** MIC [1]: 8 to 32 µg/mL (≈ 14.7 to 58.6 µM); MIC [2]: > 32 µg/mL

**Q.** What does the source list for `C/C(=N\O)C(Cc1ccc(C#Cc2ccc(CN3CCOCC3)cc2)cc1)c1ncnc(O)c1O` (stereo not shown) [Compound 111, (E)-3-(5,6-dihydroxypyrimidin-4-yl)-4-(4-((4-(morpholinomethyl)phenyl)ethynyl)phenyl)butan-2-one oxime]?
**A.** MIC [1]: 8 to 32 µg/mL (≈ 16.9 to 67.7 µM); MIC [2]: > 32 µg/mL

**Q.** Which results are given for `OCC(Cc1nccc(O)c1O)c1ccc(C#Cc2ccc(CN3CCOCC3)cc2)cc1` (stereo not shown) [Compound 134, 2-(3-hydroxy-2-(4-((4-(morpholinomethyl)phenyl)ethynyl)phenyl)propyl)pyridine-3,4-diol]?
**A.** MIC [1]: > 32 µg/mL; MIC [2]: > 32 µg/mL

**Q.** Which results are given for `O=c1[nH]cnc(CCc2ccc(C#Cc3ccc(CN4CCOCC4)cn3)cc2)c1O` [Compound 16, 5-hydroxy-6-(4-((5-(morpholinomethyl)pyridin-2-yl)ethynyl)phenethyl) pyrimidin-4(3H)-one]?
**A.** MIC [1]: < 1 µg/mL; MIC [2]: 1 to 8 µg/mL (≈ 2.4 to 19.2 µM)

**Q.** How did the MIC [1] turn out when `C=CCNCC(Cc1ccc(C#CC#Cc2cnc(C)nc2)cc1)c1nc[nH]c(=O)c1O` (stereo not shown) [Compound 37, 6-(1-(allylamino)-3-(4-((2-methylpyrimidin-5-yl)buta-1,3-diyn-1-yl)phenyl)propan-2-yl)-5-hydroxypyrimidin-4(3H)-one] was run?
**A.** 8 to 32 µg/mL (≈ 18.8 to 75.2 µM)

**Q.** And the MIC [2]?
**A.** > 32 µg/mL

**Q.** What does the source list for `O=c1cccc(CC(CO)c2ccc(C#Cc3ccc(CN4CCOCC4)cc3)cc2)n1O` (stereo not shown) [Compound 138, 1-hydroxy-6-(3-hydroxy-2-(4-((4-(morpholinomethyl)phenyl)ethynyl)phenyl)propyl)pyridin-2(1H)-one]?
**A.** MIC [1]: 8 to 32 µg/mL (≈ 18 to 72 µM); MIC [2]: 8 to 32 µg/mL (≈ 18 to 72 µM)

**Q.** For `O=c1[nH]cnc(CNc2ccc(C#Cc3ccc(CN4CCOCC4)cc3)cc2)c1O` [Compound 108, 5-hydroxy-6-(((4-((4-(morpholinomethyl)phenyl)ethynyl)phenyl)amino)methyl) pyrimidin-4(3H)-one], which MIC [1] is on record?
**A.** 1 to 8 µg/mL (≈ 2.4 to 19.2 µM)

**Q.** And the MIC [2]?
**A.** > 32 µg/mL

**Q.** For `CC(=O)NCC(Cc1ccc(C#CC#CC2CC2)c(F)c1)c1nc[nH]c(=O)c1O` (stereo not shown) [Compound 64, N-(3-(4-(cyclopropylbuta-1,3-diyn-1-yl)-3-fluorophenyl)-2-(5-hydroxy-6-oxo-1,6-dihydropyrimidin-4-yl)propyl)acetamide], which MIC [1] is on record?
**A.** 1 to 8 µg/mL (≈ 2.54 to 20.3 µM)

**Q.** And the MIC [2]?
**A.** 1 to 8 µg/mL (≈ 2.54 to 20.3 µM)

**Q.** What does the source list for `C=CCNCC(Cc1ccc(C#CC#Cc2ccc(C(=O)O)cc2)cc1)c1nc[nH]c(=O)c1O` (stereo not shown) [Compound 35, 4-((4-(3-(allylamino)-2-(5 hydroxy-6-oxo-1,6-dihydropyrimidin-4-yl)propyl)phenyl)buta-1,3-diyn-1-yl)benzoic acid]?
**A.** MIC [1]: 1 to 8 µg/mL (≈ 2.21 to 17.6 µM); MIC [2]: > 32 µg/mL

**Q.** Which results are given for `CC(=O)NCC(Cc1ccc(C#Cc2ccc(CN3CCOCC3)cc2)cc1)c1nncc(O)c1O` (stereo not shown) [Compound 11, N-(2-(4,5-dihydroxypyridazin-3-yl)-3-(4-((4-(morpholinomethyl)phenyl)ethynyl)phenyl)propyl) acetamide]?
**A.** MIC [1]: 8 to 32 µg/mL (≈ 16.4 to 65.8 µM); MIC [2]: 8 to 32 µg/mL (≈ 16.4 to 65.8 µM)

**Q.** For `O=c1[nH]cnc(CCc2ccc(C#Cc3ncccn3)cc2)c1O` [Compound 14, 5-hydroxy-6-(4-(pyrimidin-2-ylethynyl)phenethyl) pyrimidin-4(3H)-one], which MIC [1] is on record?
**A.** 8 to 32 µg/mL (≈ 25.1 to 101 µM)

**Q.** What about the MIC [2] of the same molecule?
**A.** > 32 µg/mL

**Q.** Which results are given for `O=c1[nH]cnc(C2CC2c2ccc(C#Cc3ccc(CN[C@@H]4CCNC4)cc3)cc2)c1O` (stereo partly drawn) [Compound 103, 5-hydroxy-6-(2-(4-((4-((((R)-pyrrolidin-3-yl)amino)methyl)phenyl)ethynyl)phenyl)cyclopropyl) pyrimidin-4(3H)-one]?
**A.** MIC [1]: 1 to 8 µg/mL (≈ 2.34 to 18.8 µM); MIC [2]: > 32 µg/mL

**Q.** With `OCC(Cc1nncc(O)c1O)c1ccc(C#Cc2ccc(CN[C@H]3CCOC3)cc2)cc1` (single isomer, unassigned) [Compound 102] as the molecule, how does the “E. coli MIC” value [1] read?
**A.** C (C: >8.0 μg/mL to ≤32 μg/mL)

**Q.** What about the “K. pneumoniae MIC” value [2] of the same molecule?
**A.** C (C: >8.0 μg/mL to ≤32 μg/mL)

**Q.** With `O=C(NCC(F)F)C(Cc1ccc(C#CC#CC2CC2)c(F)c1)c1nc[nH]c(=O)c1O` (stereo not shown) [Compound 61, 3-(4-(cyclopropylbuta-1,3-diyn-1-yl)-3-fluorophenyl)-N-(2,2-difluoroethyl)-2-(5-hydroxy-6-oxo-1,6-dihydropyrimidin-4-yl)propanamide] as the molecule, how does the MIC [1] read?
**A.** 1 to 8 µg/mL (≈ 2.33 to 18.6 µM)

**Q.** What about the MIC [2] of the same molecule?
**A.** 1 to 8 µg/mL (≈ 2.33 to 18.6 µM)

**Q.** How did the MIC [1] turn out when `O=c1[nH]cnc(CCc2ccc(C#Cc3ccc(CN4CCOCC4)cc3)cn2)c1O` [Compound 19, 5-hydroxy-6-(2-(5-((4-(morpholinomethyl)phenyl)ethynyl)pyridin-2-yl)ethyl)pyrimidin-4(3H)-one] was run?
**A.** < 1 µg/mL

**Q.** And the MIC [2]?
**A.** 1 to 8 µg/mL (≈ 2.4 to 19.2 µM)

**Q.** For `O=c1[nH]cnc(CCn2ccc(C#Cc3ccc(CN4CCOCC4)cc3)cc2=O)c1O` [Compound 23, 5-hydroxy-6-(2-(4-((4-(morpholinomethyl)phenyl)ethynyl)-2-oxopyridin-1(2H)-yl)ethyl)pyrimidin-4(3H)-one], which MIC [1] is on record?
**A.** < 1 µg/mL

**Q.** What about the MIC [2] of the same molecule?
**A.** 8 to 32 µg/mL (≈ 18.5 to 74 µM)

**Q.** What does the source list for `O=C(NCCO)c1ccc(C#CC#Cc2ccc(CC(CO)c3nc[nH]c(=O)c3O)cc2)cc1` (stereo not shown) [Compound 32, 4-((4-(3-hydroxy-2-(5-hydroxy-6-oxo-1,6-dihydropyrimidin-4-yl)propyl)phenyl)buta-1,3-diyn-1-yl)-N-(2-hydroxyethyl)benzamide]?
**A.** MIC [1]: 1 to 8 µg/mL (≈ 2.19 to 17.5 µM); MIC [2]: 1 to 8 µg/mL (≈ 2.19 to 17.5 µM)

**Q.** What does the source list for `O=c1[nH]cnc(C2(Cc3ccc(C#Cc4ccc(CNC5CCOC5)cc4)cc3)CC2)c1O` (stereo not shown) [Compound 136, 5-hydroxy-6-(1-(4-((4-(((tetrahydrofuran-3-yl)amino)methyl)phenyl)ethynyl)benzyl)cyclopropyl)pyrimidin-4(3H)-one]?
**A.** MIC [1]: 1 to 8 µg/mL (≈ 2.26 to 18.1 µM); MIC [2]: 8 to 32 µg/mL (≈ 18.1 to 72.5 µM)
